According to PubChem BioAssay AID1963865 (Molecular Pharmacology Branch, DTP, NCI, 2024):

Test system: KRAS PDC multicell spheroid viability
Test: Anticancer human tumor 825966-067-R-J1-PDC patient-derived colon carcinoma cell line growth inhibition [KRAS2]
Settings: for IC50: curve of first compound; for viability, T/C: stronger effect = lower value
Summary of the method: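 KRAS-mutant tumor cells were grown as spheroids with HUVEC endothelial cells and human MSCs as stroma. Targeted agents were tested alone and with KRAS pathway inhibitors. Doses started at or near clinical Cmax, or 10 microM, descending half-log.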

[1] = second compound 0.1 µM, first compound 0.00316 µM
[2] = second compound 0.1 µM, first compound 0.01 µM
[3] = second compound 0.1 µM, first compound 0.0316 µM
[4] = second compound 0.1 µM, first compound 0.1 µM
[5] = second compound 0.1 µM, first compound 0.316 µM
[6] = second compound 0.1 µM, first compound 1 µM
[7] = second compound 0.316 µM, first compound 0.00316 µM
[8] = second compound 0.316 µM, first compound 0.01 µM
[9] = second compound 0.316 µM, first compound 0.0316 µM
[10] = second compound 0.316 µM, first compound 0.1 µM
[11] = second compound 0.316 µM, first compound 0.316 µM
[12] = second compound 0.316 µM, first compound 1 µM
[13] = second compound 1 µM, first compound 0.00316 µM
[14] = second compound 1 µM, first compound 0.01 µM
[15] = second compound 1 µM, first compound 0.0316 µM
[16] = second compound 1 µM, first compound 0.1 µM
[17] = second compound 1 µM, first compound 0.316 µM
[18] = second compound 1 µM, first compound 1 µM
[19] = second compound 3.16 µM, first compound 0.00316 µM
[20] = second compound 3.16 µM, first compound 0.01 µM
[21] = second compound 3.16 µM, first compound 0.0316 µM
[22] = second compound 3.16 µM, first compound 0.1 µM
[23] = second compound 3.16 µM, first compound 0.316 µM
[24] = second compound 3.16 µM, first compound 1 µM
[25] = second compound 10 µM, first compound 0.00316 µM
[26] = second compound 10 µM, first compound 0.01 µM
[27] = second compound 10 µM, first compound 0.0316 µM
[28] = second compound 10 µM, first compound 0.1 µM
[29] = second compound 10 µM, first compound 0.316 µM
[30] = second compound 10 µM, first compound 1 µM
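Note: spheroids exposed to compounds for 7 days.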
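Throughout, for viability, T/C: 100% = DMSO vehicle control viability.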

## CCN1CCN(Cc2ccc(Nc3ncc(F)c(-c4cc(F)c5nc(C)n(C(C)C)c5c4)n3)nc2)CC1 + CNCc1ccccc1-c1csc(C(C)Nc2nc(C)nc3cc(OC)c(OC)cc23)c1
Second compound 0.1 µM
  IC50: > 1000 nM
Second compound 0.316 µM
  IC50: > 1000 nM
Second compound 1 µM
  IC50: 705 nM
Second compound 3.16 µM
  IC50: 68 nM
Second compound 10 µM
  IC50: < 3.16 nM
[1]
  viability, T/C: 98.2%
[2]
  viability, T/C: 99.1%
[3]
  viability, T/C: 126%
[4]
  viability, T/C: 137%
[5]
  viability, T/C: 174%
[6]
  viability, T/C: 123%
[7]
  viability, T/C: 101%
[8]
  viability, T/C: 128%
[9]
  viability, T/C: 115%
[10]
  viability, T/C: 129%
[11]
  viability, T/C: 176%
[12]
  viability, T/C: 78%
[13]
  viability, T/C: 111%
[14]
  viability, T/C: 122%
[15]
  viability, T/C: 154%
[16]
  viability, T/C: 173%
[17]
  viability, T/C: 147%
[18]
  viability, T/C: 10.1%
[19]
  viability, T/C: 110%
[20]
  viability, T/C: 127%
[21]
  viability, T/C: 88.5%
[22]
  viability, T/C: 30.9%
[23]
  viability, T/C: 0.29%
[24]
  viability, T/C: 0.27%
[25]
  viability, T/C: 0.26%
[26]
  viability, T/C: 0.29%
[27]
  viability, T/C: 0.22%
[28]
  viability, T/C: 0.18%
[29]
  viability, T/C: 0.15%
[30]
  viability, T/C: 0.22%

## COc1cc2nccc(Oc3ccc(NC(=O)C4(C(=O)Nc5ccc(F)cc5)CC4)cc3)c2cc1OC + CNCc1ccccc1-c1csc(C(C)Nc2nc(C)nc3cc(OC)c(OC)cc23)c1
Second compound 0.1 µM
  IC50: 1740 nM
Second compound 0.316 µM
  IC50: 1730 nM
Second compound 1 µM
  IC50: 1880 nM
Second compound 3.16 µM
  IC50: 192 nM
Second compound 10 µM
  IC50: < 31.6 nM
[3]
  viability, T/C: 86.2%
[4]
  viability, T/C: 124%
[5]
  viability, T/C: 94%
[6]
  viability, T/C: 91.2%
Second compound 0.1 µM, first compound 3.16 µM
  viability, T/C: 4.92%
Second compound 0.1 µM, first compound 10 µM
  viability, T/C: 6.89%
[9]
  viability, T/C: 74.8%
[10]
  viability, T/C: 98.7%
[11]
  viability, T/C: 94%
[12]
  viability, T/C: 97.8%
Second compound 0.316 µM, first compound 3.16 µM
  viability, T/C: 3.71%
Second compound 0.316 µM, first compound 10 µM
  viability, T/C: 4.44%
[15]
  viability, T/C: 97.9%
[16]
  viability, T/C: 117%
[17]
  viability, T/C: 104%
[18]
  viability, T/C: 122%
Second compound 1 µM, first compound 3.16 µM
  viability, T/C: 0.94%
Second compound 1 µM, first compound 10 µM
  viability, T/C: 0.47%
[21]
  viability, T/C: 113%
[22]
  viability, T/C: 59.8%
[23]
  viability, T/C: 53.4%
[24]
  viability, T/C: 1.03%
Second compound 3.16 µM, first compound 3.16 µM
  viability, T/C: 0.6%
Second compound 3.16 µM, first compound 10 µM
  viability, T/C: 0.24%
[27]
  viability, T/C: 0.28%
[28]
  viability, T/C: 0.32%
[29]
  viability, T/C: 0.24%
[30]
  viability, T/C: 0.18%
Second compound 10 µM, first compound 3.16 µM
  viability, T/C: 0.17%
Second compound 10 µM, first compound 10 µM
  viability, T/C: 0.29%

## Cn1ncnc1[C@H]1c2n[nH]c(=O)c3cc(F)cc(c23)N[C@@H]1c1ccc(F)cc1 + CNCc1ccccc1-c1csc(C(C)Nc2nc(C)nc3cc(OC)c(OC)cc23)c1
Second compound 0.1 µM
  IC50: > 100 nM
Second compound 0.316 µM
  IC50: > 100 nM
Second compound 1 µM
  IC50: > 100 nM
Second compound 3.16 µM
  IC50: 22.4 nM
Second compound 10 µM
  IC50: < 0.316 nM
Second compound 0.1 µM, first compound 0.000316 µM
  viability, T/C: 77%
Second compound 0.1 µM, first compound 0.001 µM
  viability, T/C: 84.2%
[1]
  viability, T/C: 76.4%
[2]
  viability, T/C: 64.5%
[3]
  viability, T/C: 58.2%
[4]
  viability, T/C: 58.3%
Second compound 0.316 µM, first compound 0.000316 µM
  viability, T/C: 99.9%
Second compound 0.316 µM, first compound 0.001 µM
  viability, T/C: 75.2%
[7]
  viability, T/C: 62.5%
[8]
  viability, T/C: 57.9%
[9]
  viability, T/C: 57.3%
[10]
  viability, T/C: 62.2%
Second compound 1 µM, first compound 0.000316 µM
  viability, T/C: 85.9%
Second compound 1 µM, first compound 0.001 µM
  viability, T/C: 97.9%
[13]
  viability, T/C: 72%
[14]
  viability, T/C: 73.5%
[15]
  viability, T/C: 70%
[16]
  viability, T/C: 86%
Second compound 3.16 µM, first compound 0.000316 µM
  viability, T/C: 87.3%
Second compound 3.16 µM, first compound 0.001 µM
  viability, T/C: 78.7%
[19]
  viability, T/C: 59.9%
[20]
  viability, T/C: 89.3%
[21]
  viability, T/C: 37.6%
[22]
  viability, T/C: 3.27%
Second compound 10 µM, first compound 0.000316 µM
  viability, T/C: 0.24%
Second compound 10 µM, first compound 0.001 µM
  viability, T/C: 0.26%
[25]
  viability, T/C: 0.49%
[26]
  viability, T/C: 0.28%
[27]
  viability, T/C: 0.22%
[28]
  viability, T/C: 0.19%
